In brackets after ≈: the same amount, converted by molar mass. Where two headings read alike, the source gives them in different places.
How the values were obtained:
[1] = test system: endotoxin (LPS)-induced uveitis; experiment: Endotoxin-induced uveitis in rats (in vivo assay vi); design: species or system Lewis rats; details: eyes of LPS-stimulated rats, topical, 1 mg/mL
Experimental: Male, Lewis rats (6-8 weeks old, Charles River UK Limited) are housed in cages of 3 at 19-21° C. with a 12 h light/dark cycle (07:00/19:00) and fed a standard diet of rodent chow and water ad libitum. […] Untreated rats are injected with PBS. […] Before administration, the solution or suspension to be administered is agitated for 5 minutes to ensure a uniform suspension. 6 hours after LPS dosing, animals are euthanized by overdose with pentobarbitone (i.v.). Following euthanasia, the right eye of each animal is enucleated and dissected into front (anterior) and back (posterior) sections around the lens. Each section is weighed and homogenised in 500 μL of sterile phosphate buffered saline followed by 20 minutes centrifugation at 12000 rpm at 4° C. The resulting supernatant is divided into 3 aliquots and stored at −80° C. until subsequent cytokine analysis by R&D DuoSet ELISA.

[2] = test system: HT29 cells; experiment: IL-1β-induced IL-8 release in HT29 cells (assay d); format: cell-based; details: Homo sapiens, HT-29; IL-1β-stimulated HT29 cells; read-out: IC50 Values for Inhibition of Cytokine Release, HT29 cells IL-8
Experimental: HT29 cells, a human colon adenocarcinoma cell line, are plated in a 96 well plate (24 hrs) and pre-treated with compounds at the desired concentration for 2 hours before addition of 5 ng/mL of IL-1β (Abcam) for 24 hours. Supernatants are harvested for IL-8 quantification by Sandwich ELISA (Duo-set, R&D System). The IC50 is determined from the dose response curve.

[3] = test system: PBMCs; experiment: IFN gamma release in CD3/CD28 stimulated PBMC cells (assay c); format: cell-based; details: Homo sapiens, read-out: IC50 Values for Inhibition of Cytokine Release, PBMCs IFNγ
Summary of the method: (§1)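 Steps: PBMCs separated from healthy whole blood by density gradient; seeded onto anti-CD3/CD28 coating (0.3 and 3 μg/mL respectively); compound added; incubated 3 days in standard tissue culture; supernatant cytokines quantified by sandwich ELISA, IC50 fitted.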

[4] = test system: PBMCs; experiment: Cell mitosis assay in PBMCs (assay g); format: cell-based; details: Homo sapiens, PBMC, test compound 5 μg/mL
Summary of the method: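 Human PBMCs from healthy donors, stimulated with 2% PHA for 48 hr, then exposed to test compounds for 20 hr, with demecolcine (0.1 μg/mL) added 2 hr before harvest. Cells fixed/permeabilised, stained for phospho-histone 3 and propidium iodide, and read by flow cytometry gated on lymphocytes. % mitosis inhibition vs 0.5% DMSO vehicle.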

[5] = target: p38 MAPKα isoform (MAPK14) (Homo sapiens (Human), UniProt Q16539); experiment: p38 MAPKα enzyme inhibition (FRET, Z-LYTE, Method 2); format: biochemical
Summary of the method: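 Z-LYTE FRET: p38 MAPKα (80 ng/mL for Method 1, 200 ng/mL for Method 2, pre-dilution) preincubated 2 hr RT with compound (4–0.004 μg/mL solutions), activity read via MAPKAP-K2 phosphorylation after 1 hr RT and 1 hr protease development. Coumarin/fluorescein ratio gives phosphorylation; % inhibition versus uninhibited control, IC50 from concentration-response curve.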

[6] = target: c-Src (Homo sapiens (Human), UniProt P12931); experiment: c-Src enzyme inhibition (FRET, Z-LYTE); format: biochemical
Summary of the method: (§2)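 Enzyme (c-Src 3000 ng/mL, Syk 2000 ng/mL, as added solutions) was preincubated with compound for 2 hr at RT, then FRET peptide and ATP (added solution 800 μM for c-Src, 60 μM for Syk) for 1 hr. Protease development 1 hr; coumarin/fluorescein emission ratio gave % inhibition, IC50 from concentration-response.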

[7] = target: GSK 3α (Homo sapiens (Human), UniProt P49840); experiment: GSK 3α enzyme inhibition (FRET, Z-LYTE, Method 2); format: biochemical; details: read-out: IC50 Values for Enzyme Inhibition, GSK3α
Summary of the method: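 Human GSK3α (500 ng/mL) preincubated with compound (4, 0.4, 0.04 or 0.004 μg/mL) at RT for 2 h (Method 1) or 105 min (Method 2). Then FRET peptide (8 μM) and ATP (40 μM) added for 1 h, followed by protease development for 1 h. IC50 from the coumarin/fluorescein emission ratio relative to uninhibited control.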

[8] = test system: PBMCs; experiment: LPS-induced IL-8 release in PBMC cells (assay b); format: cell-based, human; details: Homo sapiens, PBMC; LPS-stimulated PBMCs; read-out: IC50 Values for Inhibition of Cytokine Release, PBMCs IL-8
Summary of the method: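 Human PBMCs from healthy donors, isolated by density gradient, were pretreated with compound for 2 h and then stimulated with 1 ng/mL LPS (E. coli 0111:B4) for 24 h at 37° C, 5% CO2. Supernatant IL-8 and TNFα were measured by sandwich ELISA, and IC50 was taken from the dose-response curve.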

[9] = target: Syk (Homo sapiens (Human), UniProt P43405); experiment: Syk enzyme inhibition (FRET, Z-LYTE); format: biochemical
Summary of the method: as §2

[10] = test system: PBMCs; experiment: IL-2 release in CD3/CD28 stimulated PBMC cells (assay c); format: cell-based; details: Homo sapiens, read-out: IC50 Values for Inhibition of Cytokine Release, PBMCs IL-2
Summary of the method: as §1

[11] = Solubility in fasted-state simulated colonic fluid (FaSSCoF); format: physicochemical; details: thermodynamic from solid, pH 6.5, 25° C.; for solubility thermodynamic at 24 h: 25 °C, pH 6.5, fassgf or other biorelevant
Experimental: The solubilities of compounds of the invention in FaSSCoF at pH 6.5 are determined using a modification of a previously-reported procedure (Vertzoni, M., et al. Pharm. Res. 2010, 27, 2187-2196). In place of the bile salt extract employed in the original procedure (which extract is no longer available), the modified procedure uses a mixture of sodium taurochlorate (0.15 g), glycocholic acid (0.15 g), ursodeoxycholic acid (0.05 g), cholic acid (0.05 g), and glycodeoxycholic acid (0.05 g). These five bile acids are ground together with a mortar and pestle to produce a fine white powder that is incorporated into the FaSSCoF, as outlined below.
Tris(hydroxymethyl)aminomethane (Tris; 0.275 g) and maleic acid (0.44 g) are dissolved in water (35 mL) to give a solution whose pH is adjusted to 6.5 by treatment with 0.5M NaOH (ca. 12 mL). The solution is then made up to 50 mL with water. A portion of this Tris/maleate buffer solution (ca. 25 mL) is added to a 0.5 L round-bottomed flask, before being treated with 0.00565 g of the bile acid mixture described above. Solutions of phosphatidylcholine (0.0111 g) in DCM (0.15 mL) and palmitic acid (0.0013 g) in DCM (0.15 mL) are added, then the organic solvent is evaporated off under reduced pressure at 40° C. until a clear solution, with no perceptible DCM odour, is achieved. The volume of the evaporated solution is adjusted to 50 mL by addition of the remainder of Tris/maleate buffer, then BSA (0.115 g) is added, before being dissolved by gentle agitation.
Test compounds are suspended in the pH 6.5 FaSSCoF medium to give a maximum final concentration of ca. 6 mg/mL. The suspensions are equilibrated at 25° C. for 24 h, before being filtered through a glass fibre C filter. The filtrates are then diluted as appropriate for injection and quantification by HPLC with reference to a standard. Different volumes of the standard, diluted and undiluted sample solutions are injected and the solubilities are calculated using the peak areas determined by integration of the peak found at the same retention time as the principal peak in the standard injection.

Chain of c-Src (P12931 whole entry, looked up): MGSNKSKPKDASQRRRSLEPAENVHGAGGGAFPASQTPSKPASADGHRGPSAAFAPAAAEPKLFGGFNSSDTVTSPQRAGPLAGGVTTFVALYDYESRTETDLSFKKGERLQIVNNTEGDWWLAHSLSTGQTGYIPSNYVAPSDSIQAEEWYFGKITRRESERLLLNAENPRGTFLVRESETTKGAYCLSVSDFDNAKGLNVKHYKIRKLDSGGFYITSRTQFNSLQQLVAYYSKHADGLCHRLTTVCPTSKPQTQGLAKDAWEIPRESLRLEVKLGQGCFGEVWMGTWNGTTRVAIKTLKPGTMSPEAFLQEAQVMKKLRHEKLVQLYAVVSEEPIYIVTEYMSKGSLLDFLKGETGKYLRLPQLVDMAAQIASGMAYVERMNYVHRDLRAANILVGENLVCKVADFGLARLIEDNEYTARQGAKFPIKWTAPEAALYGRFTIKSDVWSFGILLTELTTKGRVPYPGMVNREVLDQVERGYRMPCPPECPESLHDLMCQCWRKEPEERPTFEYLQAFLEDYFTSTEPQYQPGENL
Chain of p38 MAPKα isoform (MAPK14) (Q16539 whole entry, canonical isoform): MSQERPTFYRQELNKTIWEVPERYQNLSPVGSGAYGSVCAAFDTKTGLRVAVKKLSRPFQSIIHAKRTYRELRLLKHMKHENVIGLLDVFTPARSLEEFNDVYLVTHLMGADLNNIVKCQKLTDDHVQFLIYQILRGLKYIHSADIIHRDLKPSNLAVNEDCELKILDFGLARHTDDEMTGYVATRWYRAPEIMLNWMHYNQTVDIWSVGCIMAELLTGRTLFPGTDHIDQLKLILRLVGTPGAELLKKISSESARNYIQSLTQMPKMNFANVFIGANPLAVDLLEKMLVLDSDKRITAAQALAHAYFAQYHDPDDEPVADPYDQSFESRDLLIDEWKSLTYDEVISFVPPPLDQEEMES
Chain of GSK 3α (P49840 whole entry): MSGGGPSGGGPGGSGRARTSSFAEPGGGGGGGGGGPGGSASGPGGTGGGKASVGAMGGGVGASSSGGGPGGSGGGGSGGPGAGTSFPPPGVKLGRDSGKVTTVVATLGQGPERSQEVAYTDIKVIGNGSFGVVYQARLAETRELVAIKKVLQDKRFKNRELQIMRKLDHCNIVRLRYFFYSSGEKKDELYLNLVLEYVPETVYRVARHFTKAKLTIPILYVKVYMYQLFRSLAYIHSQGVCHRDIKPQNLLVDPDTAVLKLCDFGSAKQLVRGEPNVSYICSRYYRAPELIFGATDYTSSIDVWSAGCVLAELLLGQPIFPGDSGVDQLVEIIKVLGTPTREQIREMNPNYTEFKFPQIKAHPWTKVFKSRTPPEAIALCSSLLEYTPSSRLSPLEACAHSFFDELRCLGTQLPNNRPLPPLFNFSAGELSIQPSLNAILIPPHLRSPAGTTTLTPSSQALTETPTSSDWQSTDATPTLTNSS

C[C@@H]1C[C@H]2[C@@H]3CCC4=CC(=O)C=C[C@]4(C)[C@@]3(F)[C@@H](O)C[C@]2(C)[C@@]1(O)C(=O)CO [Dexamethasone, dexamethasone, reference compound]
Cell counts [1]: 30.1 ± 6.4

COc1cc(Nc2cc(Oc3ccc(NC(=O)Nc4cc(C(C)(C)C)cc(CC(N)=O)c4OC)c4ccccc34)ccn2)cc(C(N)=O)c1 [Example 47, 3-((4-((4-(3-(3-(2-Amino-2-oxoethyl)-5-(tert-butyl)-2-methoxyphenyl)ureido)naphthalen-1-yl)oxy)pyridin-2-yl)amino)-5-methoxybenzamide]
IC50 [2]: 26.1 nM | IC50 [3]: 3 nM | inhibition at 5 µg/mL [4]: 30.1% | IC50 [5]: 36 nM | IC50 [6]: 34 nM | IC50 [7]: 1460 nM | IC50 [8]: 2.2 nM | IC50 [9]: > 1510 nM | IC50 [10]: 57.1 nM

COc1cc(Nc2cc(Oc3ccc(NC(=O)Nc4cc(C(C)(C)C)cc([S+](C)[O-])c4OC)c4ccccc34)ccn2)cc(C(=O)NCCN2CCN(C)CC2)c1 (centres unmarked) [Example 84, 3-((4-((4-(3-(5-(tert-Butyl)-2-methoxy-3-(methylsulfinyl)phenyl)ureido)naphthalen-1-yl)oxy)pyridin-2-yl)amino)-5-methoxy-N-(2-(4-methylpiperazin-1-yl)ethyl)benzamide]
solubility thermodynamic at 24 h ([11]; Run 1, read-out: pH 6.5 FaSSCoF Solubility Run 1): 15 µg/mL (≈ 18.9 µM) | solubility thermodynamic at 24 h ([11]; Run 2, read-out: pH 6.5 FaSSCoF Solubility Run 2): 16 µg/mL (≈ 20.2 µM) | solubility at 24 h ([11]; fassgf or other biorelevant, read-out: Solubility in the FaSSCoF medium): > 10 µg/mL | IC50 [8]: 1.8 nM

Source: patent US9890185B2, “Urea derivatives useful as kinase inhibitors” (Respivert Limited, priority 2013, dated 2018)
